In PubChem BioAssay AID1259407 (Chemical Carcinogenesis Research Information System (CCRIS), 2018):
Activity calls are given as the source filed them. The rule behind the calls is not given here.

Test system: CCRIS mutagenicity, Ames/micronucleus/aberration tests
Experiment: CCRIS mutagenicity studies
[1] = Test System: Mouse lymphoma, Strain/Indicator: L5178Y (tk+/tk-), Metabolic Activation: None, Method: Suspension/plate
[2] = Test System: Mouse lymphoma, Strain/Indicator: L5178Y (tk+/tk-), Metabolic Activation: Rat, Liver, S-9, Aroclor 1254, Method: Suspension/plate
[3] = Test System: AMES SALMONELLA TYPHIMURIUM, Strain/Indicator: TA98, Metabolic Activation: NONE, Method: STANDARD PLATE
[4] = Test System: AMES SALMONELLA TYPHIMURIUM, Strain/Indicator: TA98, Metabolic Activation: RAT, LIVER, S-9, AROCLOR 1254, Method: STANDARD PLATE
[5] = Test System: AMES SALMONELLA TYPHIMURIUM, Strain/Indicator: TA100, Metabolic Activation: NONE, Method: STANDARD PLATE
[6] = Test System: AMES SALMONELLA TYPHIMURIUM, Strain/Indicator: TA98, Metabolic Activation: HAMSTER, LIVER, S-9, AROCLOR 1254 (10%), Method: PREINCUBATION
[7] = Test System: AMES SALMONELLA TYPHIMURIUM, Strain/Indicator: TA98, Metabolic Activation: NONE, Method: PREINCUBATION
[8] = Test System: AMES SALMONELLA TYPHIMURIUM, Strain/Indicator: TA98, Metabolic Activation: RAT, LIVER, S-9, AROCLOR 1254 (10%), Method: PREINCUBATION
[9] = Test System: AMES SALMONELLA TYPHIMURIUM, Strain/Indicator: TA100, Metabolic Activation: HAMSTER, LIVER, S-9, AROCLOR 1254 (10%), Method: PREINCUBATION
[10] = Test System: AMES SALMONELLA TYPHIMURIUM, Strain/Indicator: TA100, Metabolic Activation: NONE, Method: PREINCUBATION
[11] = Test System: AMES SALMONELLA TYPHIMURIUM, Strain/Indicator: TA100, Metabolic Activation: RAT, LIVER, S-9, AROCLOR 1254 (10%), Method: PREINCUBATION
[12] = Test System: AMES SALMONELLA TYPHIMURIUM, Strain/Indicator: TA1535, Metabolic Activation: HAMSTER, LIVER, S-9, AROCLOR 1254 (10%), Method: PREINCUBATION
[13] = Test System: AMES SALMONELLA TYPHIMURIUM, Strain/Indicator: TA1535, Metabolic Activation: NONE, Method: PREINCUBATION
[14] = Test System: AMES SALMONELLA TYPHIMURIUM, Strain/Indicator: TA1535, Metabolic Activation: RAT, LIVER, S-9, AROCLOR 1254 (10%), Method: PREINCUBATION
[15] = Test System: AMES SALMONELLA TYPHIMURIUM, Strain/Indicator: TA1537, Metabolic Activation: HAMSTER, LIVER, S-9, AROCLOR 1254 (10%), Method: PREINCUBATION
[16] = Test System: AMES SALMONELLA TYPHIMURIUM, Strain/Indicator: TA1537, Metabolic Activation: NONE, Method: PREINCUBATION
[17] = Test System: AMES SALMONELLA TYPHIMURIUM, Strain/Indicator: TA1537, Metabolic Activation: RAT, LIVER, S-9, AROCLOR 1254 (10%), Method: PREINCUBATION
[18] = Test System: AMES SALMONELLA TYPHIMURIUM, Strain/Indicator: TA1538, Metabolic Activation: NONE, Method: STANDARD PLATE

## Cc1ccc(N(CCO)CCO)cc1
Test System: AMES SALMONELLA TYPHIMURIUM, Strain/Indicator: TA1535, Metabolic Activation: RAT, LIVER, S-9, AROCLOR 1254 (2.5%), Method: PREINCUBATION
  mutagenic call: active; positive
[1]
  mutagenic call: inactive; negative
[2]
  mutagenic call: inconclusive (previous evaluation equivocal)

## O=C(/C=C/c1ccccc1)c1ccc(-c2ccccc2)cc1
[3]
  mutagenic call: inactive; negative
[4]
  mutagenic call: inactive; negative
[5]
  mutagenic call: inactive; negative
Test System: AMES SALMONELLA TYPHIMURIUM, Strain/Indicator: TA100, Metabolic Activation: RAT, LIVER, S-9, AROCLOR 1254, Method: STANDARD PLATE
  mutagenic call: inactive; negative

## CCCCCCCCC/C=C/CC1CC(=O)OC1=O (stereo not given)
[6]
  mutagenic call: inactive; negative
[7]
  mutagenic call: inactive; negative
[8]
  mutagenic call: inactive; negative
[9]
  mutagenic call: inactive; negative
[10]
  mutagenic call: inactive; negative
[11]
  mutagenic call: inactive; negative
[12]
  mutagenic call: inactive; negative
[13]
  mutagenic call: inactive; negative
[14]
  mutagenic call: inactive; negative
[15]
  mutagenic call: inactive; negative
[16]
  mutagenic call: inactive; negative
[17]
  mutagenic call: inactive; negative

## C=C(C)C(=O)OCCOC1C=CC2C3CCC(C3)C12 (stereo not given)
Test System: CHINESE HAMSTER OVARY, Strain/Indicator: CHO-K1-BH4 (HGPRT), Metabolic Activation: NONE, Method: MONOLAYER
  mutagenic call: inactive; negative
Test System: CHINESE HAMSTER OVARY, Strain/Indicator: CHO-K1-BH4 (HGPRT), Metabolic Activation: NONE, Method: SUSPENSION/PLATE
  mutagenic call: active; positive

## CCCCC(CC)COS(=O)(=O)O (stereo not given)
End Point: IN VITRO CHROMOSOMAL ABERRATIONS, Test System: CHO-LB CELLS, Metabolic Activation: NONE
  mutagenic call: inactive; negative
End Point: IN VITRO CHROMOSOMAL ABERRATIONS, Test System: CHO-LB CELLS, Metabolic Activation: RAT, LIVER, S-9, AROCLOR 1254
  mutagenic call: inactive; negative
[6]
  mutagenic call: inactive; negative
[7]
  mutagenic call: inactive; negative
[8]
  mutagenic call: inactive; negative
[9]
  mutagenic call: inactive; negative
[10]
  mutagenic call: inactive; negative
[11]
  mutagenic call: inactive; negative
[12]
  mutagenic call: inactive; negative
[13]
  mutagenic call: inactive; negative
[14]
  mutagenic call: inactive; negative
[15]
  mutagenic call: inactive; negative
[16]
  mutagenic call: inactive; negative
[17]
  mutagenic call: inactive; negative
Test System: MOUSE LYMPHOMA, Strain/Indicator: L5178Y (TK+/TK-), Metabolic Activation: NONE, Method: SUSPENSION/PLATE
  mutagenic call: inactive; negative
Test System: MOUSE LYMPHOMA, Strain/Indicator: L5178Y (TK+/TK-), Metabolic Activation: RAT, LIVER, S-9, AROCLOR 1254, Method: SUSPENSION/PLATE
  mutagenic call: inactive; negative

## Cn1c(NO)nc2c3cccnc3ccc21
Test System: AMES SALMONELLA TYPHIMURIUM, Strain/Indicator: TA98(NR), Metabolic Activation: NADPH, Method: STANDARD PLATE
  mutagenic call: active; positive
Test System: AMES SALMONELLA TYPHIMURIUM, Strain/Indicator: TA98(NR), Metabolic Activation: NONE, Method: STANDARD PLATE
  mutagenic call: active; positive
Test System: AMES SALMONELLA TYPHIMURIUM, Strain/Indicator: TA98(NR), Metabolic Activation: RAT, LIVER, MICROSOMES, NADPH, Method: STANDARD PLATE
  mutagenic call: active; positive
Test System: AMES SALMONELLA TYPHIMURIUM, Strain/Indicator: TA98(NR), Metabolic Activation: RAT, LIVER, MICROSOMES, Method: STANDARD PLATE
  mutagenic call: active; positive
Test System: AMES SALMONELLA TYPHIMURIUM, Strain/Indicator: TA98(NR), Method: STANDARD PLATE
  mutagenic call: active; positive
[3]
  mutagenic call: active; positive

## CN(CO)N=O
Test System: CHINESE HAMSTER V-79, Strain/Indicator: V-79/OUABAIN, Metabolic Activation: NONE
  mutagenic call: active; positive

## Cc1cc(-c2ccc(N/N=C3/C(=O)c4c(N)cc(S(=O)(=O)O)cc4C=C3S(=O)(=O)O)c(C)c2)ccc1N/N=C1/C(=O)c2c(N)cc(S(=O)(=O)O)cc2C=C1S(=O)(=O)O
Test System: AMES SALMONELLA TYPHIMURIUM, Strain/Indicator: TA98, Metabolic Activation: HAMSTER, LIVER, S-9, Method: PREINCUBATION (PRIVAL METHOD)
  mutagenic call: active; positive
Test System: AMES SALMONELLA TYPHIMURIUM, Strain/Indicator: TA100, Metabolic Activation: HAMSTER, LIVER, S-9, Method: PREINCUBATION (PRIVAL METHOD)
  mutagenic call: active; positive
[18]
  mutagenic call: inactive; negative
Test System: Ames Salmonella typhimurium, Strain/Indicator: TA98, Metabolic Activation: Rat, Liver, S-9, Sodium phenobarbitone, Method: Preincubation
  mutagenic call: inactive; negative, test conducted under both aerobic and anaerobic conditions.
Test System: Ames Salmonella typhimurium, Strain/Indicator: TA1538, Metabolic Activation: Rat, Liver, S-9, Sodium phenobarbitone, Method: Preincubation
  mutagenic call: inactive; negative, test conducted under both aerobic and anaerobic conditions.
[1]
  mutagenic call: inactive; negative
[2]
  mutagenic call: inactive; negative

## CC(=O)[C@]1(O)Cc2c(O)c3c(c(O)c2[C@@H](O[C@H]2C[C@H](N)[C@H](O)[C@H](C)O2)C1)C(=O)c1c(O)cccc1C3=O
Test System: AMES SALMONELLA TYPHIMURIUM, Strain/Indicator: GW257, Metabolic Activation: NONE, Method: STANDARD PLATE
  mutagenic call: active; positive
Test System: AMES SALMONELLA TYPHIMURIUM, Strain/Indicator: TA97, Metabolic Activation: NONE, Method: STANDARD PLATE
  mutagenic call: active; positive
[7]
  mutagenic call: active; positive
[3]
  mutagenic call: active; positive
[4]
  mutagenic call: active; positive
[5]
  mutagenic call: active; positive
Test System: AMES SALMONELLA TYPHIMURIUM, Strain/Indicator: TA104, Metabolic Activation: NONE, Method: STANDARD PLATE
  mutagenic call: inactive; negative
[18]
  mutagenic call: active; positive
Test System: AMES SALMONELLA TYPHIMURIUM, Strain/Indicator: TA2637, Metabolic Activation: NONE, Method: STANDARD PLATE
  mutagenic call: active; positive
